One series relates to Ia antigen. In words: Ia antigen expression on alveolar macrophages (flow cytometry). Type of series: cell-based, rat. The method, then:
^a Ia antigen expression - Alveolar macrophages were diluted to 1×10^6 cells/ml in RPMI (supplemented as above). Three mls. (3×10^6 cells) were added to sterile teflon vials and treated with pentamidine or dexamethasone for 4 hours at 37° C., 5% CO2, followed by the addition of rat γ IFN at 100 U/ml. Cells were incubated for 18 hours, pelleted, counted and adjusted to 1×10^7 cells/ml in ice cold standard buffer (HBSS, 0.1% Na azide, 1% BSA).
Aliquots of cells (50 μl in quadruplicate) from the various treatment groups were plated to a 96 well round bottom plate (Linbro) and incubated for 45 minutes on ice with 50 μl aliquots of one of the following: monoclonal anti-rat OXS (Sera-lab), monoclonal anti-mouse OX6 (Sera-lab), both at 0.5 μg/5×10^5 cells, or HBSS (control). Cells were washed 3× with standard buffer and incubated for 45 minutes on ice, in the dark, with 50 μl of phycoerythrin-labeled goat anti-mouse IGGI (Fisher Biotech) at 1 μg/5×10^5 cells. Cells were washed 3× with standard buffer, resuspended in 0.4 ml of standard buffer and analyzed via flow cytometry.

A further series relates to IL-1α. In words: Western blot analysis of cell associated IL-1α. Type of series: cell-based, rat. To be noted: 1 μM dexamethasone, LPS, 24 h, FIG. 3. The method, then: To determine the effect of pentamidine on cellular stores of IL-1, intracellular levels of IL-1 were quantitated by incubating cells with and without 10 μM pentamidine and LPS for 24 hours. At the end of this incubation period, the cells were washed, lysed and the total cellular protein was collected for Western blot analysis. […] This is in agreement with the generally accepted existence of a precursor form of IL-1 with a molecular weight in the range of 31-33 kD (J. Giri et al., J. Immunol. 134, 343 (1985)).
Cells (4×10^6 cells) were oultured with pentamidine (10μM) or dexamethasone (1μM) in media with 10% fetal calf serum (FCS) in the presence or absence of LPS (1 μg/ml) for 24 hours. The cells were washed twice in HBSS and then scraped in homogenizing buffer (HBSS containing 0.1 mM EGTA, 1 mM pmsf, 10 μg/ml leupeptin, 1 KIU/ml aprotinin, pH 7.4). The cell suspension was left on ice for 10 minutes at which time the swollen cells were disrupted by sonication. The nuclei and undisrupted cells were pelleted by centrifugation at 800 rpm for 10 minutes and were discarded. The supernatant was centrifugated at 39,000 rpm for 1 hour at 4° C. After centrifugation, the supernatants containing cytosolic components of the cell was carefully removed and was used as the cytosol fraction. […] Molecular weight references were determined by running one lane with pre-stained molecular weight standards.

Series [1] deals with Pulmonary alveolar macrophages. The experiment in a line: Phagocytosis by pulmonary alveolar macrophages (Fluoresbrite beads, flow cytometry). Type of series: cell-based, rat. How it is done:
One ml aliquots were added to sterile teflon vials (Nalgene) along with pentamidine or dexamethasone (Sigma) as indicated, and incubated for 4 hours at 37° C., 5% CO2. Fluoresbrite carboxylate beads, 1.73 μm (Polysciences) were used to achieve a 100:1 bead to cell ratio and the suspension was incubated for 45 minutes at 37° C., 5% CO2 with gentle agitation. Cell suspensions were then layered over 3 mls. of RPMI/FCS+0.3% BSA, and cells pelleted at 150 xg for 10 minutes. Supernates were discarded and cells resuspended in 1 ml of RPMI/FCS for analysis via flow cytometry. The data presented above is the mean of the percentage of cells taking up one or more beads of triplicate cultures.
For orientation: A flow cytometer gives signals particle by particle.

The subject of another series is IL-1α mRNA. In words: Northern blot analysis of IL-1α mRNA expression. The format is cell-based, rat. To be noted: 1 μM dexamethasone, LPS, 3 h, FIG. 2. The method, then: Specific transcription of IL-1α mRNA synthesis was assessed by incubating cells with and without 10 μM pentamidine or 1 μM of the corticosteroid, dexamethasone in the presence or absence of lipopolysaccharide (LPS). At the end of a 3 hour incubation period, the cells were lysed and the total cellular RNA was collected, blotted onto a nitrocellulose filter and probed with ^32 P-labeled IL-1α cDNA. […] In contrast, mRNA for IL-1α was not seen in dexamethasone treated cells.
For determination of IL-1 mRNA levels, cells (4×10^6) were cultured with or without pentamidine (10 μM) or dexamethasone (1 μM) in media with 10% FCS in the presence or absence of LPS (1 μg/ml) for 3 hours. Total cellular RNA was isolated by quanidinium-thiocyanate phenolchloroform extraction (P. Chomczynski et al., Anal. Bioch. 162, 156 (1987)). RNA (10 μg) was electrophoresed in 1.2% agarose gels as previously described (H. Leharch et al., Biochemistry 4743 (1977)). […] Hybridizing species were detected by autoradiography at -70° C., using Kodak XAR film with an intensifying screen. The total RNA levels per lane on the gel was assessed by monitoring 28S and 18S, and expression of α-tubulin mRNA. Accumulation of α-tubulin mRNA was determined by probing the same blot with ^32 P labeled 30 mer oligonucleotide (Du Pont).

Series [2] concerns IL-1. In words: IL-1 release from alveolar macrophages (thymocyte co-stimulation bioassay). The format is cell-based, rat. To be noted: for Effect on IL-1: LPS, 24 h, FIG. 7. The method, then:
Pulmonary alveolar macrophages were collected by lavaging the lungs as previously described (D. B. Warheit et al., Am. Rev. Resp. Dis. 134, 128 (1986)). Once washed and resuspended, the macrophages were allowed to adhere to plastic plates in serum free RPMI 1640 containing 25 mM Hepes, 2 mM L-glutamine, 50 μg/ml gentamicin and streptomycin (media). Following adherence for 1 hour at 37° C. in 5% CO2, the plates were washed once with warm media to remove nonadherent cells, cells were resuspended in media with 10% FCS and treated with or without pentamidine at the indicated concentration and LPS (5 ng/ml) for 24 hours). IL-1 activity was assayed using a thymocyte co-stimulation assay (S. B. Mizel in Methods in Macrophage Biology, Editors, Herscowitz and Holden (1981)). Single cell thymocyte suspension from B6C3F1 mice (female, 5-9 weeks old) at a concentration of 2.0×10^7 /ml in media containing 10% FCS, and 2.5×10^-5 M 2-β mercaptoethanol were added in 50 μl aliquots to each well of flat bottom microtiter plates along with 50 μl of PHA at 2.5 μg/ml. Serial dilution of supernatants or cells were made in media with 10% FCS and added in 100 μl aliquots. IL-1 activity was measured by quantifying the uptake of 3Hthymidine during the last 6 hours of a 72 hour culture at 37° C. and 5% CO2. Cells were harvested onto glass fiber filters and filter associated radioactivity counted in a scintillation counter.
(§1) In vitro studies were performed by taking alveolar macrophages from normal healthy rat lungs and culturing them in the presence of an imidazoline with the inducer lipopolysaccharide for 24 hours. The standard bioassay for IL-1 was performed (see above).

The test system of the next series is rat macrophages. In words: In vitro toxicity to the cell (LD50). To be noted: imidazoline, summary statement; compared with pentamidine. The format is cell-based.
Series [3] can be described thus: In vitro toxicity to the cell (LD50). Conditions: rat macrophages. Type of series: cell-based.
The test system of a further series is tumor necrosis factor. The experiment in a line: Tumor necrosis factor secretion by rat macrophages. Type of series: cell-based. How it is done:
It has also been observed that pentamidine (10^-5 M) blocks the secretion of tumor necrosis factor in rat macrophages (42 units/ml - pentamidine vs. 82 units/ml - control), as well as tumor necrosis factor and IL-6 in human macrophages, where at a concentration of 10^-5 M pentamidine, tumor necrosis factor and IL-6 secretion are suppressed >50%. These additional cytokines are also very influential mediators in inflammatory diseases.
as §1

Series [4] relates to IL-1. In words: Western blot analysis of IL-1 on cellular protein from imidazoline treated cells. The format is cell-based, rat. The text has this:
In addition, Western blot analysis of IL-1 on cellular protein derived from imidazoline treated cells was recently performed. This method definitively identifies the presence or absence of the protein using electrophoretic techniques to separate by molecular weight IL-1 from other proteins followed by staining with specific antibody fog IL-1.

As for `C[C@@H]1C[C@H]2[C@@H]3CCC4=CC(=O)C=C[C@]4(C)[C@@]3(F)[C@@H](O)C[C@]2(C)[C@@]1(O)C(=O)CO` [Dexamethasone], the “Ia Antigen Expression (MFI)” value in the series with Ia antigen (Dexamethasone 10^-6 M (control 459), p < 0.025 vs. control) is reported as 253 MFI. In addition, the “Mean concentration of Ia molecules on Ia positive cells” value in the series with Ia antigen (result in words) is “clearly demonstrated its broad immunosuppressive action on these two macrophage functions”. Also, the “Cell associated IL-1α (Western blot)” value in the series on IL-1α was “did not express the precursor from of IL-1α”. Further, the “Phagocytic Index” value in series [1] (Dexamethasone 10^-6 M (control 32), p < 0.025 vs. control) is listed as 25%. Also, the “Phagocytic capacity of alveolar macrophages” value in [1] (result in words) is reported as “clearly demonstrated its broad immunosuppressive action on these two macrophage functions”. In the series with IL-1α mRNA, the “IL-1α mRNA expression” value is recorded as “not seen”.

Turning to `c1cc(C2=NCCN2)ccc1OCCCCCOc1ccc(C2=NCCN2)cc1` [Imidazoline, 1,5-di(4-imidazolinophenoxy)pentane], the “Effect on IL-1” value with IL-1 [2] (imidazoline 10^-6 M, 10^-5 M and 10^-4 M) is “blocked IL-1 in a dose related manner”; in the series with IL-1 [2] (imidazoline 10^-8 M), “No effect”. The “Block of IL-1 in rat macrophages” value with IL-1 [2] (imidazoline, summary statement) is listed as “ability to block IL-1”. Moreover, the “Toxicity to the cell” value with rat macrophages is reported as “less toxic to the cell”. In series [3], the CC50 – broadly, the concentration that lowers cell viability or growth by half – was greater than 100 µM. For the same compound, in the series on tumor necrosis factor (10^-5 M Imidazoline, LPS, 24 h (control 83 ± 11)), the “Tumor Necrosis Factor” value is listed as 46 ± 19 units/ml. Besides, in the series on tumor necrosis factor (imidazoline, summary statement), the “Block of tumor necrosis factor in rat macrophages” value was “ability to block IL-1 and tumor necrosis factor”. The “Block of IL-1 secretion (Western blot)” value in the series with IL-1 [4] was “blocks the secretion of IL-1 in a similar manner to pentamidine”.

Source of the values: US5162361A, “Method of treating diseases associated with elevated levels of interleukin 1” (priority 1990, dated 1992).
